# Assay results: patent publication US4619925A, “3-Propenyl cephalosporin derivatives” (priority 1985, dated 1986)
# Assays:
# Format in all cases: cell-based
# S. aureus Smith = test: MIC, agar dilution technique (Mueller-Hinton Agar); details: Staphylococcus aureus, Gp-Ia, penicillin sensitive, read-out: Minimum Inhibitory Concentration
# Excerpt: (§1) Each of these groups of organisms is constituted of five individual strains of microorganism. The Gp-Ia organisms are Gram-positive staphylococci which are sensitive to penicillin. The Gp-Ib organisms are Gram-positive staphylococci which are resistant to penicillin and produce penicillinase. The Gn-Ia organisms are Gram-negative bacteria which are sensitive to ampicillin and cephalothin. The Gn-Ib organisms are Gram-negative bacteria which are resistant to ampicillin and cephalothin.
# P. mirabilis A9900 = test: MIC, agar dilution technique (Mueller-Hinton Agar); details: Proteus mirabilis, A9900, read-out: Minimum Inhibitory Concentration
# Excerpt: as §1
# P. mirabilis A9554 = test: MIC, agar dilution technique (Mueller-Hinton Agar); details: Proteus mirabilis, A9554, read-out: Minimum Inhibitory Concentration
# Excerpt: as §1
# S. aureus A9497 = test: MIC, agar dilution technique (Mueller-Hinton Agar); details: Staphylococcus aureus, Gp-Ia, penicillin sensitive, read-out: Minimum Inhibitory Concentration
# Excerpt: as §1
# S. aureus No. 193 = test: MIC, agar dilution technique (Mueller-Hinton Agar); details: Staphylococcus aureus, Gp-Ib, penicillin resistant, read-out: Minimum Inhibitory Concentration
# Excerpt: as §1
# E. coli A20341-1 = test: MIC, agar dilution technique (Mueller-Hinton Agar); details: Escherichia coli, A203411, read-out: Minimum Inhibitory Concentration
# Excerpt: as §1
# E coli RGN-823 = test: MIC, agar dilution technique (Mueller-Hinton Agar); details: Escherichia coli, RGN823, Gn-Ib, ampicillin and cephalothin resistant, read-out: Minimum Inhibitory Concentration
# Excerpt: as §1
# K. pneumoniae A20345 = test: MIC, agar dilution technique (Mueller-Hinton Agar); details: Klebsiella pneumoniae, Gn-Ib, ampicillin and cephalothin resistant, read-out: Minimum Inhibitory Concentration
# Excerpt: as §1
# S. aureus A15092 = test: MIC, agar dilution technique (Mueller-Hinton Agar); details: Staphylococcus aureus, Gp-Ib, penicillin resistant, read-out: Minimum Inhibitory Concentration
# Excerpt: as §1
# E. coli A15148 = test: MIC, agar dilution technique (Mueller-Hinton Agar); details: Escherichia coli; E. coli A15148; Gn-Ib, ampicillin and cephalothin resistant; read-out: Minimum Inhibitory Concentration
# Excerpt: as §1
# S. aureus A9534 = test: MIC, agar dilution technique (Mueller-Hinton Agar); details: Staphylococcus aureus, Gp-Ia, penicillin sensitive, read-out: Minimum Inhibitory Concentration
# Excerpt: as §1
# S. aureus Russell = test: MIC, agar dilution technique (Mueller-Hinton Agar); details: Staphylococcus aureus; S. aureus Russell; Gp-Ib, penicillin resistant; read-out: Minimum Inhibitory Concentration
# Excerpt: as §1
# E. coli A9660 = test: MIC, agar dilution technique (Mueller-Hinton Agar); details: Escherichia coli, A9660, read-out: Minimum Inhibitory Concentration
# Excerpt: as §1
# K. pneumoniae A20346 = test: MIC, agar dilution technique (Mueller-Hinton Agar); details: Klebsiella pneumoniae, A20346, read-out: Minimum Inhibitory Concentration
# Excerpt: as §1
# E. coli Juhl = test: MIC, agar dilution technique (Mueller-Hinton Agar); details: Escherichia coli, read-out: Minimum Inhibitory Concentration
# Excerpt: as §1
# K. pneumoniae D11 = test: MIC, agar dilution technique (Mueller-Hinton Agar); details: Klebsiella pneumoniae, D11, read-out: Minimum Inhibitory Concentration
# Excerpt: as §1
# S. aureus A9601 = test: MIC, agar dilution technique (Mueller-Hinton Agar); details: Staphylococcus aureus, A9601, read-out: Minimum Inhibitory Concentration
# Excerpt: as §1
# S. aureus Terajima = test: MIC, agar dilution technique (Mueller-Hinton Agar); details: Staphylococcus aureus, Gp-Ia, penicillin sensitive, read-out: Minimum Inhibitory Concentration
# Excerpt: as §1
# S. aureus A9602 = test: MIC, agar dilution technique (Mueller-Hinton Agar); details: Staphylococcus aureus; S. aureus A9602; Gp-Ib, penicillin resistant; read-out: Minimum Inhibitory Concentration
# Excerpt: as §1
# S. aureus BX-1633-2 = test: MIC, agar dilution technique (Mueller-Hinton Agar); details: Staphylococcus aureus, BX16332, read-out: Minimum Inhibitory Concentration
# Excerpt: as §1
# S. pyogenes A20201 = test: In vitro activity against fastidious bacteria; details: Streptococcus pyogenes, A20201
# Excerpt: (§2) Table 5 contains comparative data for in vitro antibacterial activity against fastidious bacteria.
# H. influenzae A22483 = test: In vitro activity against fastidious bacteria; details: Haemophilus influenzae; H. influenzae A22483; ampicillin-sensitive (ABPC-S); read-out: MIC
# Excerpt: as §2
# H. influenzae A22491 = test: In vitro activity against fastidious bacteria; details: Haemophilus influenzae, ampicillin-resistant (ABPC-R)
# Excerpt: as §2
# H. influenzae A22481 = test: In vitro activity against fastidious bacteria; details: Haemophilus influenzae, ampicillin-resistant (ABPC-R)
# Excerpt: as §2
# S. pneumoniae Type I = test: In vitro activity against fastidious bacteria; details: Streptococcus pneumoniae
# Excerpt: as §2
# S. pyogenes A15040 = test: In vitro activity against fastidious bacteria; details: Streptococcus pyogenes, A15040
# Excerpt: as §2
# S. pyogenes A20065 = test: In vitro activity against fastidious bacteria; details: Streptococcus pyogenes, A20065
# Excerpt: as §2
# S. pyogenes s-23 = test: In vitro activity against fastidious bacteria; details: Streptococcus pyogenes, S23
# Excerpt: as §2
# H. influenzae A22482 = test: In vitro activity against fastidious bacteria; details: Haemophilus influenzae; H. influenzae A22482; ampicillin-sensitive (ABPC-S); read-out: MIC
# Excerpt: as §2
# S. pyogenes A9604 = test: In vitro activity against fastidious bacteria; details: Streptococcus pyogenes, A9604
# Excerpt: as §2
# N. meningitidis A20049 = test: In vitro activity against fastidious bacteria; details: Neisseria meningitidis, A20049
# Excerpt: as §2
# S. pneumoniae A15069 = test: In vitro activity against fastidious bacteria; details: Streptococcus pneumoniae, A15069
# Excerpt: as §2
# N. meningitidis A21497 = test: In vitro activity against fastidious bacteria; details: Neisseria meningitidis, A21497
# Excerpt: as §2
# N. meningitidis A20048 = test: In vitro activity against fastidious bacteria; details: Neisseria meningitidis, A20048
# Excerpt: as §2
# H. influenzae A22157 = test: In vitro activity against fastidious bacteria; details: Haemophilus influenzae, ampicillin-resistant (ABPC-R)
# Excerpt: as §2
# S. pneumoniae A20759 = test: In vitro activity against fastidious bacteria; details: Streptococcus pneumoniae, A20759
# Excerpt: as §2
# N. meningitidis A21495 = test: In vitro activity against fastidious bacteria; details: Neisseria meningitidis, A21495
# Excerpt: as §2
# S. pyogenes Dick = test: In vitro activity against fastidious bacteria; details: Streptococcus pyogenes
# Excerpt: as §2
# H. influenzae A9833 = test: In vitro activity against fastidious bacteria; details: Haemophilus influenzae; H. influenzae A9833; ampicillin-sensitive (ABPC-S); read-out: MIC
# Excerpt: as §2
# N. meningitidis A21487 = test: In vitro activity against fastidious bacteria; details: Neisseria meningitidis, A21487
# Excerpt: as §2
# H. influenzae A9729 = test: In vitro activity against fastidious bacteria; details: Haemophilus influenzae; H. influenzae A9729; ampicillin-sensitive (ABPC-S); read-out: MIC
# Excerpt: as §2
# S. pneumoniae Type III = test: In vitro activity against fastidious bacteria; details: Streptococcus pneumoniae
# Excerpt: as §2
structure (smiles),measurement,setting,value
CC1=C(C(=O)O)N2C(=O)[C@@H](NC(=O)[C@H](N)c3ccccc3)[C@H]2SC1 [cephalexin],MIC,S. aureus Smith,1.6 µg/mL
same,MIC,P. mirabilis A9900,12.5 µg/mL
same,MIC,P. mirabilis A9554,12.5 µg/mL
same,MIC,S. aureus A9497,1.6 µg/mL
same,MIC,S. aureus No. 193,6.3 µg/mL
same,MIC,E. coli A20341-1,6.3 µg/mL
same,MIC,E coli RGN-823,12.5 µg/mL
same,MIC,K. pneumoniae A20345,6.3 µg/mL
same,MIC,S. aureus A15092,6.3 µg/mL
same,MIC,E. coli A15148,100 µg/mL
same,MIC,S. aureus A9534,1.6 µg/mL
same,MIC,S. aureus Russell,3.1 µg/mL
same,MIC,E. coli A9660,6.3 µg/mL
same,MIC,K. pneumoniae A20346,6.3 µg/mL
same,MIC,E. coli Juhl,6.3 µg/mL
same,MIC,K. pneumoniae D11,6.3 µg/mL
same,MIC,S. aureus A9601,1.6 µg/mL
same,MIC,S. aureus Terajima,1.6 µg/mL
same,MIC,S. aureus A9602,3.1 µg/mL
same,MIC,S. aureus BX-1633-2,6.3 µg/mL
same,MIC,S. pyogenes A20201,0.8 µg/mL
same,MIC,H. influenzae A22483,3.1 µg/mL
same,MIC,H. influenzae A22491,3.1 µg/mL
same,MIC,H. influenzae A22481,3.1 µg/mL
same,MIC,S. pneumoniae Type I,3.1 µg/mL
same,MIC,S. pyogenes A15040,0.8 µg/mL
same,MIC,S. pyogenes A20065,0.8 µg/mL
same,MIC,S. pyogenes s-23,0.8 µg/mL
same,MIC,H. influenzae A22482,3.1 µg/mL
same,MIC,S. pyogenes A9604,0.8 µg/mL
same,MIC,N. meningitidis A20049,3.1 µg/mL
same,MIC,S. pneumoniae A15069,3.1 µg/mL
same,MIC,N. meningitidis A21497,3.1 µg/mL
same,MIC,N. meningitidis A20048,3.1 µg/mL
same,MIC,H. influenzae A22157,3.1 µg/mL
same,MIC,S. pneumoniae A20759,3.1 µg/mL
same,MIC,N. meningitidis A21495,3.1 µg/mL
same,MIC,S. pyogenes Dick,0.8 µg/mL
same,MIC,H. influenzae A9833,3.1 µg/mL
same,MIC,N. meningitidis A21487,3.1 µg/mL
same,MIC,H. influenzae A9729,3.1 µg/mL
same,MIC,S. pneumoniae Type III,3.1 µg/mL
